Tests used:
HBL100 = assay: three day MTT cytotoxicity assay, HBL100; assay type: cell-based, human; conditions: for IC50 for cell lines HBL100: HBL100, 72 hours, MTT; for Specific Index (SI) for cell lines HBL100: ratio of IC50 of NIH 3T3 cells to HBL100
Method: (§1) A number of compounds listed in Table-3 were tested for cytotoxicity against prostate, lung, laryngeal, pancreas, breast, colon and ovarian cancer, leukemia and lymphoma, human tumor cell lines. Briefly, a three day MTT cytotoxicity assay was performed, which is based on the principle of uptake of MTT (3-(4,5-dimethylthiazol-2-yl)-2,5-diphenyl tetrazolium bromide), a tetrazolium salt, by the metabolically active cells where it is metabolized by active mitochondria into a blue colored formazan product that is read spectrophotometrically. MIT was dissolved in phosphate buffered saline with a pH of 7.4 to obtain an MIT concentration of 5 mg/ml; the resulting mixture was filtered through a 0.22-micron filter to sterilize and remove a small amount of insoluble residue. For each type of tumor cell, 10,000 to 15,000 cells were seeded in a 96-well culture plate and incubated with the individual betulinic acid derivatives in a CO2 incubator for a total of 72 hours. Control cells not treated with the betulinic acid derivatives were similarly incubated. The assay was terminated by adding 100 μg (20 μl) of MIT to each well then incubating for additional one hour, and finally adding 50 μl of 10% SDS-0.01N HCl to each well to lyse the cells and dissolve formazan. After incubating for one hour, the plate was read spectrophotometrically at 540 nm and the percentage of cytotoxicity calculated using the following formula: Cytotoxicity percentage=100×[1−(X/R1)], where X=(absorbance of treated sample at 540 nm)−(absorbance of blank at 540 nm) R1=absorbance of control sample at 540 nm. The IC50 Values of the cytotoxicity defined as the concentration at which 50% of the cells are killed in vitro was calculated for each cell line treated with each of the betulinic acid derivatives.

Miapaca = assay: three day MTT cytotoxicity assay, Miapaca; assay type: cell-based, human; conditions: for IC50 for cell lines Miapaca: 72 hours, MTT; for Specific Index (SI) for cell lines Miapaca: ratio of IC50 of NIH 3T3 cells to Miapaca
Method: as §1

DU145 = assay: three day MTT cytotoxicity assay, DU145; assay type: cell-based, human; conditions: DU145, 72 hours
Method: as §1

SW620 = assay: three day MTT cytotoxicity assay, SW620; assay type: cell-based, human; conditions: SW620, 72 hours
Method: (§2) Briefly, a three day MTT cytotoxicity assay was performed, which is based on the principle of uptake of MTT (3-(4,5-dimethylthiazol-2-yl)-2,5-diphenyl tetrazolium bromide), a tetrazolium salt, by the metabolically active cells where it is metabolized by active mitochondria into a blue colored formazan product that is read spectrophotometrically. MIT was dissolved in phosphate buffered saline with a pH of 7.4 to obtain an MIT concentration of 5 mg/ml; the resulting mixture was filtered through a 0.22-micron filter to sterilize and remove a small amount of insoluble residue. For each type of tumor cell, 10,000 to 15,000 cells were seeded in a 96-well culture plate and incubated with the individual betulinic acid derivatives in a CO2 incubator for a total of 72 hours. Control cells not treated with the betulinic acid derivatives were similarly incubated. The assay was terminated by adding 100 μg (20 μl) of MIT to each well then incubating for additional one hour, and finally adding 50 μl of 10% SDS-0.01N HCl to each well to lyse the cells and dissolve formazan. After incubating for one hour, the plate was read spectrophotometrically at 540 nm and the percentage of cytotoxicity calculated using the following formula: Cytotoxicity percentage=100×[1−(X/R1)], where X=(absorbance of treated sample at 540 nm)−(absorbance of blank at 540 nm) R1=absorbance of control sample at 540 nm. The IC50 Values of the cytotoxicity defined as the concentration at which 50% of the cells are killed in vitro was calculated for each cell line treated with each of the betulinic acid derivatives.

PA1 = assay: three day MTT cytotoxicity assay, PA1; assay type: cell-based, human; conditions: PA1, 72 hours
Method: as §2

NIH 3T3 cells = assay: NIH3T3 cytotoxicity test (72 h MTT assay); assay type: cell-based; conditions: NIH3T3, 72 hours
Method: The cytotoxic effect of chemicals upon NIH 3T3 cells in culture is measured by cell metabolism determination using the previously described MIT assay. Healthy NIH 3T3 cells (an established cell-line), when maintained in culture continuously divide and multiply over time. The basis of this test is that a cytotoxic chemical (regardless of site or mechanism of action) will interfere with this process and, thus, result in a reduction of the growth rate as reflected by cell number. The degree of inhibition of growth, related to the concentration of the test compound, provides an indication of toxicity.
The NIH 3T3 cells are maintained in culture and exposed to test compounds over a range of concentrations and the number of viable cells determined after 72 hours exposure by MIT assay. The number of cells in the presence of test chemicals are compared to that observed in control cultures and the percent inhibition of growth calculated. The IC50 concentration (i.e. the concentration producing 50% inhibition of growth) is determined and expressed as μg/ml. A ratio of IC50 of NIH 3T3 cells to tumor cells is an indicator of predicted toxicity of the molecule and is represented as “Safety Index”. The higher the value, the better is the predicted safety of the molecule.

A549 = assay: three day MTT cytotoxicity assay, A549; assay type: cell-based, human; conditions: for IC50 for cell lines A549: A549, 72 hours, MTT; for Specific Index (SI) for cell lines A549: ratio of IC50 of NIH 3T3 cells to A549
Method: as §1

K562 = assay: three day MTT cytotoxicity assay, K562; assay type: cell-based, human; conditions: for IC50 for cell lines K562: K562, 72 hours, MTT; for Specific Index (SI) for cell lines K562: ratio of IC50 of NIH 3T3 cells to K562
Method: as §1

Compound | IC50 for cell lines HBL100 (HBL100) [µg/mL] | IC50 for cell lines Miapaca (Miapaca) [µg/mL] | IC50 for cell lines DU145 (DU145) [µg/mL] | IC50 for cell lines SW620 (SW620) [µg/mL] | IC50 for cell lines PA1 (PA1) [µg/mL] | IC50 for cell lines NIH3T3 (NIH 3T3 cells) [µg/mL] | IC50 for cell lines A549 (A549) [µg/mL] | IC50 for cell lines K562 (K562) [µg/mL] | Specific Index (SI) for cell lines A549 (A549) | Specific Index (SI) for cell lines HBL100 (HBL100) | Specific Index (SI) for cell lines Miapaca (Miapaca) | Specific Index (SI) for cell lines K562 (K562)
1′-Benzyl-2,3-didehydro-20,29-dihydro-4′-phenylpyrrolo[2′,′:2,3]betulinic acid [Compound 13] | >20 | >20 | >20 | >20 | >20 | >20 |  |  |  |  |  | 
28-O-Pivaloyoxymethyl-2,3-didehydroindolo[2′,3′:2,3]betulinate [Compound 17] | >20 | >20 | >20 | >20 | >20 | >20 | >20 | >20 |  |  |  | 
C=C(C)[C@@H]1CC[C@]2(C(=O)O)CC[C@]3(C)[C@H](CC[C@@H]4[C@@]5(C)Cc6c([nH]c7ccccc67)C(C)(C)[C@@H]5CC[C@]43C)[C@@H]12 [Compound 1, 2,3-Didehydroindolo[2′,′:2,3]betulinic acid] | 10.3 ± 0.9 | 6.7 ± 0.59 | 8.86 | 5.151 | 6.01 | 6.9 ± 0.76 | 7.6 ± 0.57 | 10.05 ± 0.61 | 0.907 | 0.669 | 1.029 | 0.68
CC(C)[C@@H]1CC[C@]2(C(=O)O)CC[C@]3(C)C(CCC4[C@@]5(C)Cc6c([nH]c7ccccc67)C(C)(C)C5CC[C@]43C)C12 (stereo partly shown) [Compound 2, 2,3-Didehydro-20,29-dihydroindolo[2′,3′:2,3]betulinic acid] | >20 | >20 | >20 | >20 | >20 | >20 | >20 | 15.07 ± 2.15 |  |  |  | 
C=C(C)[C@@H]1CC[C@]2(C(=O)O)CC[C@]3(C)C(CCC4[C@@]5(C)Cc6c(n(C)c7ccccc67)C(C)(C)C5CC[C@]43C)C12 (stereo partly shown) [Compound 3, 2,3-Didehydro-1′-methylindolo[2′,′:2,3]betulinic acid] | 19.5 ± 2.1 | 5.34 ± 0.96 | ≥ 20 |  |  | 15.12 ± 3.04 | 6.9 ± 0.21 | 7.73 ± 0.17 | 2.191 | 0.775 | 2.831 | 1.956
CC(C)[C@@H]1CC[C@]2(C(=O)O)CC[C@]3(C)C(CCC4[C@@]5(C)Cc6c(n(C)c7ccccc67)C(C)(C)C5CC[C@]43C)C12 (stereo partly shown) [Compound 4, 2,3-Didehydro-20,29-dihydro-1′-methylindolo[2′,3′,2,3]betulinic acid] | 14.14 ± 0.8 | 5.4 ± 0.43 | >20 |  | >20 | >20 | 6.5 ± 3.4 | 10.85 ± 1.5 | >3.076 | >1.414 | >3.703 | >1.843
CC(C)[C@@H]1CC[C@]2(C(=O)O)CC[C@]3(C)[C@H](CC[C@@H]4[C@@]5(C)Cc6c([nH]c7ccc(Cl)cc67)C(C)(C)[C@@H]5CC[C@]43C)[C@@H]12 [Compound 6, 5′-Chloro-2,3-didehydro-20,29-dihydroindolo[2′,′:2,3]betulinic acid] | >20 | 15.19 ± 1.06 | 6.5 | 5.9 | 6.6 | 19.03 ± 0.21 | 8.8 ± 0.74 | >20 | 2.163 | <0.951 | 1.252 | <0.952
C=C(C)[C@@H]1CC[C@]2(C(=O)O)CC[C@]3(C)[C@H](CC[C@@H]4[C@@]5(C)Cc6c([nH]c7ccc(F)cc67)C(C)(C)[C@@H]5CC[C@]43C)[C@@H]12 [Compound 7, 2,3-Didehydro-5′-fluoroindolo[2′,′:2,3]betulinic acid] | >20 | 17.4 ± 2.6 |  | 9.16 |  | >20 | 17.8 ± 1.79 | 10.95 ± 0.93 | >1.123 |  | >1.149 | >1.826
CC(C)[C@@H]1CC[C@]2(C(=O)O)CC[C@]3(C)[C@H](CC[C@@H]4[C@@]5(C)Cc6c([nH]c7ccc(F)cc67)C(C)(C)[C@@H]5CC[C@]43C)[C@@H]12 [Compound 8, 2,3-Didehydro-5′-fluoro-20,29-dihydroindolo[2′,′:2,3]betulinic acid] | >20 | 8.4 ± 0.76 |  | 7.28 |  | 14.59 ± 0.33 | 8.89 ± 0.84 | 14.01 ± 0.75 | 1.641 | <0.730 | 1.737 | 1.041
CC(C)[C@@H]1CC[C@]2(C(=O)O)CC[C@]3(C)[C@H](CC[C@@H]4[C@@]5(C)Cc6c(oc7ccccc67)C(C)(C)[C@@H]5CC[C@]43C)[C@@H]12 [Compound 12, 2,3-Didehydro-20,29-dihydrobenzfurano[2′,3′:2,3]betulinic acid] | >20 | 8.8 ± 0.36 | >20 |  | >20 | 20 ± 5.6 | 7.1 ± 1.6 | 15.28 ± 0.18 | 2.817 | <1 | 2.273 | 1.309
